Results from patent US6818669B2, “Increasing cerebral bioavailability of drugs” (Enos Pharmaceuticals, Inc., priority 1999, dated 2004).

How the values were obtained:
wild type mice = experiment: Regional cerebral blood flow (rCBF) by laser-Doppler flowimetry after L-arginine infusion, wild type and simvastatin-treated mice; format: in vivo
Description: (§1) The number of mice in each group is indicated in parenthesis.

[1] = test system: mutant mice deficient in endothelial nitric oxide synthase (eNOS null); experiment: Regional cerebral blood flow (rCBF) by laser-Doppler flowimetry after L-arginine infusion, eNOS null mice; format: in vivo; conditions: L-arginine 450 mg/kg i.v.
Description: as §1

[2] = mouse, in vivo
[3] = Uptake of tritium labeled Dizocilpine in MCA territory after MCA occlusion (Example 6, autoradiography); format: in vivo, mice; conditions: L-arginine 400 mg/kg infusion over 10 min acutely or Simvastatin SC 3 weeks, Example 6 written in present tense
Description: 4 groups of mice receive the following treatments by SQ administration for 3 weeks, followed on day 22 by a surgery where an MCA occlusion is induced by an insertion of a modified 8-0 suture. […] Thereafter the mice are sacrificed at 15 and 30 minutes, and the brain tissue is frozen and sectioned and then analyzed by autoradiographic methods to quantitate the amount of radiolabeled compound present within the MCA territory on the side of occlusion.
1) 2 groups of saline SC injection over 3 weeks
a) 1 group after surgery received radio labeled Dizocilpine
2) 2 groups of Simvastain SC injection over 3 weeks

[4] = L-arginine infusion in simvastatin-treated mice
[5] = wild type mice, L-arginine 450 mg/kg i.v.

Structure (SMILES) | elevations in regional cerebral blood flow (RCBF) (wild type mice; L-arginine 300 mg/kg i.v., preliminary experiments n=4, modest and variable) [%] | additional time for which rCBF increases sustained (wild type mice; [4]) [min] | time of maximum rCBF increase (wild type mice; [4]) [min] | maximum rCBF increase over simvastatin baseline (wild type mice; L-arginine infusion in simvastatin-treated mice, at 15-20 min) | increase in blood flow in the 30-40 minute epoch, simvastatin treated compared to non treated control (wild type mice; L-arginine infusion, P<0.05) | time at which increase in RCBF began (wild type mice; [5]) [min] | time of maximum rCBF values (wild type mice; [5]) [min] | time at which RCBF increase achieved statistical significance (wild type mice; wild type mice, L-arginine 450 mg/kg i.v., after infusion) [min] | maximum rCBF increase above baseline (wild type mice; wild type mice, L-arginine 450 mg/kg i.v., parietal cortex, at 20-25 min) [%] | rCBF change during the 40 minute recording period [1] | rCBF response (in words) [1] | blood pH after infusion (in words) [2] | uptake of Dizocilpine within the underperfused brain [3] | increase of baseline rCBF (wild type mice; after chronic daily administration of simvastatin alone) [%]
N=C(N)NCCC[C@H](N)C(=O)O [L-arginine] | 10 | 20 | 15 to 20 | 29-31% | larger | 5 to 10 | 20 to 25 | 10 to 15 | 26 | −4 to +5% | did not increase rCBF | lower | higher uptake | –
CCC(C)(C)C(=O)O[C@H]1C[C@@H](C)C=C2C=C[C@H](C)[C@H](CC[C@@H]3C[C@@H](O)CC(=O)O3)[C@H]21 [simvastatin] | – | – | – | – | – | – | – | – | – | – | – | – | – | 25
